# Reference: the NIST ThermoML archive (doi:10.1016/j.jct.2012.06.012)
# Numbers after ± are expanded uncertainties.
# Assay: xn = mol fraction of the nth substance listed
# Details: Liquid, Vibrating tube method
smiles,measurement,setting,value
CCCCCCCCCC [decane] + CCO,mass density,"332.86 K, 16000 kPa, x2 = 0.0937",713.17 ± 0.43 kg/m3
same,mass density,"332.86 K, 16000 kPa, x2 = 0.9014",751.15 ± 0.37 kg/m3
same,mass density,"332.86 K, 17000 kPa, x2 = 0.0937",714.01 ± 0.44 kg/m3
same,mass density,"332.86 K, 17000 kPa, x2 = 0.9014",752.07 ± 0.38 kg/m3
same,mass density,"332.86 K, 18000 kPa, x2 = 0.0937",714.82 ± 0.45 kg/m3
same,mass density,"332.86 K, 18000 kPa, x2 = 0.9014",752.96 ± 0.4 kg/m3
same,mass density,"332.86 K, 19000 kPa, x2 = 0.0937",715.64 ± 0.47 kg/m3
same,mass density,"332.86 K, 19000 kPa, x2 = 0.9014",753.84 ± 0.41 kg/m3
same,mass density,"332.86 K, 20000 kPa, x2 = 0.0937",716.42 ± 0.48 kg/m3
same,mass density,"332.86 K, 20000 kPa, x2 = 0.9014",754.71 ± 0.42 kg/m3
same,mass density,"332.87 K, 1000 kPa, x2 = 0.1011",699.31 ± 0.22 kg/m3
same,mass density,"332.87 K, 1000 kPa, x2 = 0.4963",707.52 ± 0.22 kg/m3
same,mass density,"332.87 K, 2000 kPa, x2 = 0.1011",700.32 ± 0.24 kg/m3
same,mass density,"332.87 K, 2000 kPa, x2 = 0.4963",708.54 ± 0.23 kg/m3
same,mass density,"332.87 K, 3000 kPa, x2 = 0.1011",701.31 ± 0.25 kg/m3
same,mass density,"332.87 K, 3000 kPa, x2 = 0.4963",709.55 ± 0.24 kg/m3
same,mass density,"332.87 K, 4000 kPa, x2 = 0.1011",702.29 ± 0.26 kg/m3
same,mass density,"332.87 K, 4000 kPa, x2 = 0.4963",710.55 ± 0.26 kg/m3
same,mass density,"332.87 K, 5000 kPa, x2 = 0.1011",703.26 ± 0.28 kg/m3
same,mass density,"332.87 K, 5000 kPa, x2 = 0.4963",711.53 ± 0.27 kg/m3
same,mass density,"332.87 K, 6000 kPa, x2 = 0.1011",704.21 ± 0.29 kg/m3
same,mass density,"332.87 K, 6000 kPa, x2 = 0.4963",712.5 ± 0.28 kg/m3
same,mass density,"332.87 K, 7000 kPa, x2 = 0.1011",705.15 ± 0.31 kg/m3
same,mass density,"332.87 K, 7000 kPa, x2 = 0.4963",713.48 ± 0.3 kg/m3
same,mass density,"332.87 K, 8000 kPa, x2 = 0.1011",706.08 ± 0.32 kg/m3
same,mass density,"332.87 K, 8000 kPa, x2 = 0.4963",714.46 ± 0.31 kg/m3
same,mass density,"332.87 K, 9000 kPa, x2 = 0.1011",707 ± 0.33 kg/m3
same,mass density,"332.87 K, 9000 kPa, x2 = 0.4963",715.43 ± 0.32 kg/m3
same,mass density,"332.87 K, 10000 kPa, x2 = 0.1011",707.91 ± 0.35 kg/m3
same,mass density,"332.87 K, 10000 kPa, x2 = 0.4963",716.38 ± 0.34 kg/m3
same,mass density,"332.87 K, 11000 kPa, x2 = 0.1011",708.83 ± 0.36 kg/m3
same,mass density,"332.87 K, 11000 kPa, x2 = 0.4963",717.33 ± 0.35 kg/m3
same,mass density,"332.87 K, 12000 kPa, x2 = 0.1011",709.73 ± 0.37 kg/m3
same,mass density,"332.87 K, 12000 kPa, x2 = 0.4963",718.27 ± 0.36 kg/m3
same,mass density,"332.87 K, 13000 kPa, x2 = 0.1011",710.62 ± 0.39 kg/m3
same,mass density,"332.87 K, 13000 kPa, x2 = 0.4963",719.21 ± 0.37 kg/m3
same,mass density,"332.87 K, 14000 kPa, x2 = 0.1011",711.51 ± 0.4 kg/m3
same,mass density,"332.87 K, 14000 kPa, x2 = 0.4963",720.13 ± 0.39 kg/m3
same,mass density,"332.87 K, 15000 kPa, x2 = 0.1011",712.38 ± 0.41 kg/m3
same,mass density,"332.87 K, 15000 kPa, x2 = 0.4963",721.03 ± 0.4 kg/m3
same,mass density,"332.87 K, 16000 kPa, x2 = 0.1011",713.23 ± 0.43 kg/m3
same,mass density,"332.87 K, 16000 kPa, x2 = 0.4963",721.92 ± 0.41 kg/m3
same,mass density,"332.87 K, 17000 kPa, x2 = 0.1011",714.07 ± 0.44 kg/m3
same,mass density,"332.87 K, 17000 kPa, x2 = 0.4963",722.8 ± 0.43 kg/m3
same,mass density,"332.87 K, 18000 kPa, x2 = 0.1011",714.88 ± 0.45 kg/m3
same,mass density,"332.87 K, 18000 kPa, x2 = 0.4963",723.66 ± 0.44 kg/m3
same,mass density,"332.87 K, 19000 kPa, x2 = 0.1011",715.69 ± 0.47 kg/m3
same,mass density,"332.87 K, 19000 kPa, x2 = 0.4963",724.5 ± 0.45 kg/m3
same,mass density,"332.87 K, 20000 kPa, x2 = 0.1011",716.47 ± 0.48 kg/m3
same,mass density,"332.87 K, 20000 kPa, x2 = 0.4963",725.32 ± 0.46 kg/m3
same,mass density,"332.91 K, 1000 kPa, x2 = 0.7526",720.88 ± 0.21 kg/m3
same,mass density,"332.91 K, 2000 kPa, x2 = 0.7526",721.93 ± 0.22 kg/m3
same,mass density,"332.91 K, 3000 kPa, x2 = 0.7526",722.96 ± 0.23 kg/m3
same,mass density,"332.91 K, 4000 kPa, x2 = 0.7526",723.98 ± 0.25 kg/m3
same,mass density,"332.91 K, 5000 kPa, x2 = 0.7526",725 ± 0.26 kg/m3
same,mass density,"332.91 K, 6000 kPa, x2 = 0.7526",726.01 ± 0.27 kg/m3
same,mass density,"332.91 K, 7000 kPa, x2 = 0.7526",727.02 ± 0.28 kg/m3
same,mass density,"332.91 K, 8000 kPa, x2 = 0.7526",728.03 ± 0.3 kg/m3
same,mass density,"332.91 K, 9000 kPa, x2 = 0.7526",729.03 ± 0.31 kg/m3
same,mass density,"332.91 K, 10000 kPa, x2 = 0.7526",729.99 ± 0.32 kg/m3
same,mass density,"332.91 K, 11000 kPa, x2 = 0.7526",730.98 ± 0.33 kg/m3
same,mass density,"332.91 K, 12000 kPa, x2 = 0.7526",731.94 ± 0.35 kg/m3
same,mass density,"332.91 K, 13000 kPa, x2 = 0.7526",732.91 ± 0.36 kg/m3
same,mass density,"332.91 K, 14000 kPa, x2 = 0.7526",733.85 ± 0.37 kg/m3
same,mass density,"332.91 K, 15000 kPa, x2 = 0.7526",734.78 ± 0.38 kg/m3
same,mass density,"332.91 K, 16000 kPa, x2 = 0.7526",735.69 ± 0.39 kg/m3
same,mass density,"332.91 K, 17000 kPa, x2 = 0.7526",736.6 ± 0.41 kg/m3
same,mass density,"332.91 K, 18000 kPa, x2 = 0.7526",737.48 ± 0.42 kg/m3
same,mass density,"332.91 K, 19000 kPa, x2 = 0.7526",738.35 ± 0.43 kg/m3
same,mass density,"332.91 K, 20000 kPa, x2 = 0.7526",739.19 ± 0.44 kg/m3
same,mass density,"332.97 K, 1000 kPa, x2 = 0.2507",701.45 ± 0.22 kg/m3
same,mass density,"332.97 K, 2000 kPa, x2 = 0.2507",702.46 ± 0.23 kg/m3
same,mass density,"332.97 K, 3000 kPa, x2 = 0.2507",703.46 ± 0.25 kg/m3
same,mass density,"332.97 K, 4000 kPa, x2 = 0.2507",704.44 ± 0.26 kg/m3
same,mass density,"332.97 K, 5000 kPa, x2 = 0.2507",705.41 ± 0.28 kg/m3
same,mass density,"332.97 K, 6000 kPa, x2 = 0.2507",706.36 ± 0.29 kg/m3
same,mass density,"332.97 K, 7000 kPa, x2 = 0.2507",707.31 ± 0.3 kg/m3
same,mass density,"332.97 K, 8000 kPa, x2 = 0.2507",708.26 ± 0.32 kg/m3
same,mass density,"332.97 K, 9000 kPa, x2 = 0.2507",709.21 ± 0.33 kg/m3
same,mass density,"332.97 K, 10000 kPa, x2 = 0.2507",710.12 ± 0.34 kg/m3
same,mass density,"332.97 K, 11000 kPa, x2 = 0.2507",711.06 ± 0.36 kg/m3
same,mass density,"332.97 K, 12000 kPa, x2 = 0.2507",711.97 ± 0.37 kg/m3
same,mass density,"332.97 K, 13000 kPa, x2 = 0.2507",712.88 ± 0.38 kg/m3
same,mass density,"332.97 K, 14000 kPa, x2 = 0.2507",713.78 ± 0.4 kg/m3
same,mass density,"332.97 K, 15000 kPa, x2 = 0.2507",714.65 ± 0.41 kg/m3
same,mass density,"332.97 K, 16000 kPa, x2 = 0.2507",715.53 ± 0.42 kg/m3
same,mass density,"332.97 K, 17000 kPa, x2 = 0.2507",716.38 ± 0.44 kg/m3
same,mass density,"332.97 K, 18000 kPa, x2 = 0.2507",717.21 ± 0.45 kg/m3
same,mass density,"332.97 K, 19000 kPa, x2 = 0.2507",718.03 ± 0.46 kg/m3
same,mass density,"332.97 K, 20000 kPa, x2 = 0.2507",718.82 ± 0.47 kg/m3
